Measurements from US20080293721A1, “ARYLTHIOACETAMIDE CARBOXYLATE DERIVATIVES AS FKBP INHIBITORS FOR THE TREATMENT OF NEUROLOGICAL DISEASES” (Burnham Institute for Medical Research, priority 2007, published 2008).

Experiments:
[1] = system: primary rat cortical neurons; test: neurite outgrow with primary rat cortical neurons (FIGS. 4, 5; Sholl analysis); assay type: cell-based; conditions: FIG. 4
Description: FIGS. 4 and 5 show the effect of FKBP12 ligands on neurite outgrow with primary rat cortical neurons.

FKBP12 = FKBP12 (Homo sapiens, UniProt P62942); test: secondary assays with isothermal titration calorimetry and 2D NMR (FIGS. 2, 3); assay type: binding
Sequence of FKBP12 (P62942 whole entry, species assumed): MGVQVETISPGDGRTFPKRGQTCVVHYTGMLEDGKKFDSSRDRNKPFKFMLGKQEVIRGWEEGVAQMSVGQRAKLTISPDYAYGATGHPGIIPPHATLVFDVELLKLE
Description: The ligand concentration chart refers to the compound having the formula VIII (i.e., p-toluoylthioacetylmorpholine) used as the ligand.

Compound	effect on neurite outgrow [1]	Kd (FKBP12)
CC(C)c1ccc(SCC(=O)N2CCOCC2C(=O)OCCCc2cccnc2)cc1 (centres unmarked) [Compound VII, 3-(pyridine-3-yl)propyl 4-(2-(4-isopropylphenylthio)acetyl)morpholine-3-carboxylate]	particularly substantial	–
Cc1ccc(SCC(=O)N2CCOCC2)cc1 [VIII]	–	4 µM
